According to paper PMC2902711 (Toxicon : official journal of the International Society on …, 2010):
Where two headings read alike, the source gives them in different places.

Columns and labels:
[1] = test system: RTA; conditions: read-out: IC50 for RTA; cited from earlier work
[2] = molecular target: Shiga toxin type 1 subunit A (StxA1) (Bacteriophage H30, UniProt P10149); assay: biochemical; type: biochemical, Escherichia coli
[3] = test system: Vero cells; conditions: for concentrations at which the compound was itself cytotoxic: African green monkey

Chain of Shiga toxin type 1 subunit A (StxA1) (P10149 23-273 limits assumed): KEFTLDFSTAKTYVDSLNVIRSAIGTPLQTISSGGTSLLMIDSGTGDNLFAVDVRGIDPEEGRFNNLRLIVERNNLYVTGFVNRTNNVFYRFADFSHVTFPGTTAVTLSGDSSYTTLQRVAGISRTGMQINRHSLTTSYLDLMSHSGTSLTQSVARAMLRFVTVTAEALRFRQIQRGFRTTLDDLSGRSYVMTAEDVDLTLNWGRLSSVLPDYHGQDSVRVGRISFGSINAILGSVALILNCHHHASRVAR

| Compound | IC50 [1] | concentrations at which the compound was itself cytotoxic [3] | other results |
| --- | --- | --- | --- |
| Cc1nc2c(=O)[nH]c(N)nc2o1 [8-methyl-9-oxaguanine] | ~400 µM |  |  |
| Cc1ccc(/C=C/C(=O)NC2CCCc3ccccc32)o1 (stereo not drawn) [Compound 1, (E)-3-(5-methylfuran-2-yl)-N-(1,2,3,4-tetrahydronaphthalen-1-yl)prop-2-enamide] |  |  | IC50 [2]: ~700 µM; cytotoxicity of the compound itself [3]: did not exhibit significant cytotoxicity |
| CC(C)Nc1nc(C#N)nc(NC(C)C)n1 [Compound 2, 4,6-bis(propan-2-ylamino)-1,3,5-triazine-2-carbonitrile] |  |  | cytotoxicity of the compound itself [3]: moderately cytotoxic |
| COC(=O)C(C)N1C(=O)S/C(=C/c2ccc(N3CCCCCC3)o2)C1=O (stereo not drawn) [Compound 3, methyl 2-[(5E)-5-[[5-(azepan-1-yl)furan-2-yl]methylidene]-2,4-dioxo-1,3-thiazolidin-3-yl]propanoate] |  | less than 20 μM |  |
| CS(=O)(=O)c1nc2ccccc2n1Cc1cccc2ccccc12 [Compound 4, 2-methylsulfonyl-1-(naphthalen-1-ylmethyl)benzimidazole] |  | > 30 µM |  |
| O=C(OCc1ccc(F)cc1)c1cc(-c2ccco2)nc2ccccc12 [Compound 8, 4-fluorophenyl methyl 2-(furan-2-yl)quinoline-4-carboxylate] |  |  | IC50 ([2]; read-out: StxA1 IC50): 40 µM; IC50 ([2]; read-out: apparent IC50 for StxA1): ~40 µM |
| O=C(CSc1nnc[nH]1)N(Cc1ccc(F)cc1)C1CCCCC1 [Compound C17-1, N-cyclohexyl-N-[(4-fluorophenyl)methyl]-2-(4H-1,2,4-triazol-3-ylsulfanyl)acetamide] |  | > 100 µM | IC50 [2]: 500 µM |
| Nc1cc(O)c(N)c(O)n1 [DDP, 2,5-diamino-4-6-dihydroxypyridine] | 2200 µM |  |  |
| Nc1nc2ncc(CNc3ccc(C(=O)O)cc3)nc2c(=O)[nH]1 [pteroic acid (PTA), pteroic acid] | ~600 µM |  |  |
